{"source": "ChEMBL document CHEMBL1201862", "about": "“PubChem BioAssay data set” (2004)", "key": {"[1]": {"assay": "viability of uninfected HEp-2 cells – cell-based, HTS, cytotoxicity control for RSV inhibitor project, dose response (AID 2410)", "assay_type": "functional", "settings": "human respiratory syncytial virus"}, "[2]": {"assay": "Luminescence Cell-Based Dose Retest to Confirm Inhibitors of Cancer Stem Cells. [Related pubchem assays (depositor defined):AID2717, AID2721]", "assay_type": "functional", "settings": "Homo sapiens"}, "[3]": {"target": "Luciferin 4-monooxygenase (Photinus pyralis, UniProt P08659)", "sequence (P08659 whole entry)": "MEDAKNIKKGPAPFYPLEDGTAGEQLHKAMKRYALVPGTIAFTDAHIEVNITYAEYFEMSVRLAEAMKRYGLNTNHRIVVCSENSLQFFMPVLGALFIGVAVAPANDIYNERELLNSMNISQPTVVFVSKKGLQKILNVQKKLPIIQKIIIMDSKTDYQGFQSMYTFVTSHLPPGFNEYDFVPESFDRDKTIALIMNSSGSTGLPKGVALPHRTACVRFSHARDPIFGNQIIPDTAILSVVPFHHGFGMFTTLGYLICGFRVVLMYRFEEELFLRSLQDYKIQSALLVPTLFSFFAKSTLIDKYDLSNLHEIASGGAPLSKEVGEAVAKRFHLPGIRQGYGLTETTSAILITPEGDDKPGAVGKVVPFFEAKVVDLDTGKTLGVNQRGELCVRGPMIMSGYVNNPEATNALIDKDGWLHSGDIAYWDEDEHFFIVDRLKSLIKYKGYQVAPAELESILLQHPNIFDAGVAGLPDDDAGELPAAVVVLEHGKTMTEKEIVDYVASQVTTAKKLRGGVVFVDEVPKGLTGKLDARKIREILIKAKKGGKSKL", "assay": "inhibition of purified Photinus pyralis luciferase – biochemical, luminescence, dose response (AID 1891)"}, "[4]": {"assay": "Luminescence Cell-Based Dose Confirmation HTS to Identify Inhibitors of Platelet Dense Granule Release. [Related pubchem assays: 1663 (Primary HTS), 1678 (Summary of Project)]", "assay_type": "functional"}, "[5]": {"assay": "fluconazole-exposed Candida albicans growth modulators – fluorescence, retest, confirmation (AID 2467)", "assay_type": "functional, cell-based"}, "[6]": {"assay": "NIH-3T3 fibroblast cytotoxicity, dose response, cytotoxicity control, cell-based, fluorescence, Alamar Blue, secondary assay (AID 2327);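 further: NIH-3T3 mouse fibroblasts cultured with fluconazole at 8 µg/mL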", "assay_type": "functional"}, "INS1": {"system": "INS1", "assay": "INS-1E survival protection against cytokine death – cell-based, luminescence, retest, dose response (AID 449756);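 further: cell death triggered by IL-1 beta plus TNF-alpha plus IFN-gamma mixture; protective hits raise ATP signal compared with cytokine alone wells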", "assay_type": "functional", "settings": "Rattus norvegicus"}, "[7]": {"assay": "NIH3T3 cell viability loss – ATP luminescence, mouse fibroblasts, counter-screen, dose response (AID 2010);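 further: cells exposed to compound for about 90 hours before reading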", "assay_type": "functional, cell-based"}, "[8]": {"assay": "Trypanosoma cruzi growth suppression in host cells – NIH3T3 host cells, beta-gal luminescence, confirmation (AID 2044);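 further: intracellular parasites grown in NIH/3T3 mouse fibroblasts as host cells; luminescent beta-galactosidase reporter signal from transgenic T. cruzi replicating inside host cells; inhibitors lower the luminescence signal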", "assay_type": "functional, cell-based"}, "[9]": {"assay": "reduction of Shn3 3'UTR-driven luciferase in osteoblasts – cell-based, Clone20 osteoblasts, firefly luciferase, cherry-picked, dose response (AID 624132)", "assay_type": "functional"}, "[10]": {"assay": "non-specific 3'UTR reporter inhibition in Clone20-Shn3RL – cell-based, Renilla luciferase, cherry-picked, counter-screen for Shn3 inhibitor project, dose response (AID 624133)", "assay_type": "functional"}}, "note": "The source made the active and inactive calls. For most assays here, no stated cut-off is given here; in the data, actives have a measured EC50 and inactives only a lower limit.", "data": [{"smiles": "O=C(Cn1cnc2c(cnn2-c2ccccc2)c1=O)N1CCOCC1", "values": [{"measurement": "CC50", "setting": "[1]", "result": "30.5 µM (active)"}]}, {"smiles": "O=C(Cc1ccc(Cl)cc1)Nc1ccc2c(c1)C(=O)NC2=O", "values": [{"measurement": "AC50", "setting": "[2]", "result": "> 195 µM (inactive)"}]}, {"smiles": "CCc1nnc(NC(=O)CSc2nnc(Cc3cccn3C)n2CCOC)s1", "values": [{"measurement": "EC50", "setting": "[3]", "result": "> 112 µM (not active)"}, {"measurement": "EC50", "setting": "[4]", "result": "> 112 µM (not active)"}]}, {"smiles": "O=C(NNC(=O)c1cc(Cl)ccc1O)c1ccc(NS(=O)(=O)c2cccs2)cc1", "values": [{"measurement": "EC50", "setting": "[5]", "result": "> 38 µM (not active)"}, {"measurement": "AC50", "setting": "[2]", "result": "9 µM (active)"}, {"measurement": "EC50", "setting": "[6]", "result": "> 160 µM (inactive)"}]}, {"smiles": "CN=C(S)Nc1ccc(C(N)=O)cc1", "values": [{"measurement": "EC50", "setting": "[4]", "result": "> 112 µM (not active)"}]}, {"smiles": "CNC(=S)Nc1ccc(C(N)=O)cc1", "values": [{"measurement": "EC50", "setting": "[3]", "result": "> 112 µM (not active)"}]}, {"smiles": "Cc1ccc(-c2ccc(/C=C/C(=O)c3ccccc3)o2)cc1", "values": [{"measurement": "CC50", "setting": "[1]", "result": "12.8 µM (active)"}]}, {"smiles": "CCCCC(=O)N1C/C=C\\C(c2ccc(OC)cc2)N(Cc2ccc(F)cc2)C(=O)[C@H]1Cc1ccccc1", "note": "(stereo not given in full)", "values": [{"measurement": "AC50", "setting": "INS1", "result": "8.17 µM (active)"}, {"measurement": "EC50", "setting": "[7]", "result": "> 60 µM (not active)"}, {"measurement": "EC50", "setting": "[8]", "result": "1.99 µM (active)"}]}, {"smiles": "COc1ccccc1NC(=O)COC(=O)c1ccccc1C(=O)N1CCN(c2ccccc2)CC1", "values": [{"measurement": "CC50", "setting": "[1]", "result": "29.5 µM (active)"}]}, {"smiles": "Cc1ccc2[nH]c(SCC(=O)Nc3ccc(C)c([N+](=O)[O-])c3)nc2c1", "values": [{"measurement": "CC50", "setting": "[1]", "result": "25.5 µM (active)"}]}, {"smiles": "O=C(NCc1ccccn1)c1cc(-c2ccc(Cl)cc2)oc1C(F)(F)F", "values": [{"measurement": "AC50", "setting": "INS1", "result": "> 260 µM (inactive)"}]}, {"smiles": "COc1cccc(N2CCN(Cc3nc(O)c4c(-c5ccccc5)csc4n3)CC2)c1", "values": [{"measurement": "AC50", "setting": "[2]", "result": "1.08 µM (active)"}]}, {"smiles": "COc1ccc(-c2cn3c(C)c(C(=O)N4CCCc5ccccc54)sc3n2)cc1", "values": [{"measurement": "CC50", "setting": "[1]", "result": "13.3 µM (active)"}]}, {"smiles": "CCN(CCn1cccn1)Cc1c[nH]nc1-c1cccc2ccccc12", "values": [{"measurement": "EC50", "setting": "[3]", "result": "> 112 µM (not active)"}, {"measurement": "EC50", "setting": "[4]", "result": "> 112 µM (not active)"}]}, {"smiles": "Cc1cc(CN2CCOCC2)c(O)c(C2(C)CCCCC2)c1", "values": [{"measurement": "AC50", "setting": "[9]", "result": "32.3 µM (active)"}, {"measurement": "AC50", "setting": "[10]", "result": "32.1 µM (active)"}]}, {"smiles": "COc1ccc(OC)c(CCNC(=O)CCc2nnc3ccc(N4CCCCC4)nn23)c1", "values": [{"measurement": "EC50", "setting": "[3]", "result": "> 112 µM (not active)"}, {"measurement": "EC50", "setting": "[4]", "result": "52.5 µM (active)"}]}, {"smiles": "COc1ccc(NC(=O)Nc2nc3c(s2)CCCC3)cc1", "values": [{"measurement": "EC50", "setting": "[5]", "result": "8.48 µM (active)"}, {"measurement": "EC50", "setting": "[6]", "result": "> 150 µM (inactive)"}]}, {"smiles": "Cc1ccc(-n2c(C)cc(/C(O)=C(/C([S-])=Nc3ccc(F)c(Cl)c3)[n+]3ccccc3)c2C)cc1", "values": [{"measurement": "EC50", "setting": "[5]", "result": "> 38 µM (not active)"}, {"measurement": "EC50", "setting": "[6]", "result": "> 160 µM (inactive)"}]}, {"smiles": "COc1ccc(C2NC(c3ccc(OC)cc3)C([N+](=O)[O-])C(C)(C)C2[N+](=O)[O-])cc1", "note": "(stereo not given)", "values": [{"measurement": "EC50", "setting": "[3]", "result": "> 112 µM (not active)"}, {"measurement": "EC50", "setting": "[4]", "result": "> 112 µM (not active)"}]}]}
